The text below walks through data of PubChem BioAssay AID602356 (Sanford-Burnham Center for Chemical Genomics, 2012).

Several values for one entry are separate records, joined by “and”; a condition that tells them apart may be missing. Equal entries are not always repeated. Activity calls are given as the source filed them. No rule for the calls is given here. Some results are limits rather than exact numbers.

The test deals with Neurotensin receptor type 1 (Homo sapiens) (UniProt P30989). Put plainly: NTR1 agonists in analog series, SAR follow-up, imaging, image-based, set 3 (AID 602356). The following applies: NTR1 image-based agonist assay, cellular imaging.
Sequence of Neurotensin receptor type 1 (Homo sapiens) (P30989 whole entry, looked up): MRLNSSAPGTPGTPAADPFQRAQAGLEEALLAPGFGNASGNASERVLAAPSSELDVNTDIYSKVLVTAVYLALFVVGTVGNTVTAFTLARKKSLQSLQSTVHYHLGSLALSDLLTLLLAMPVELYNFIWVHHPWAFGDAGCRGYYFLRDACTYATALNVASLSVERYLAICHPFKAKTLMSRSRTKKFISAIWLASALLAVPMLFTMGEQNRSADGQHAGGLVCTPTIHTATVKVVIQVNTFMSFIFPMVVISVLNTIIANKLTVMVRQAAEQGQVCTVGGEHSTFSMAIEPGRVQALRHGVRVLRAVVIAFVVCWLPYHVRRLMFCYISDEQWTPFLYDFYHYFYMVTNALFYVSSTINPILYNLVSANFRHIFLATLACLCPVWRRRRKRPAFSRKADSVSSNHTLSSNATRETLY
One may read the EC50 as the midpoint of the concentration-response curve. For the compound `COc1cc2nc(CCN(C)C)nc(N3CCN(c4ccccc4OC)CC3)c2cc1OC`, the EC50 is > 80 µM (inactive).
Next, `COc1cc2c3nnc(-c4ccc(F)cc4)c-3cn(Cc3ccccc3F)c2cc1OC`: 2.52 µM; `COc1cc2ncc3c(-c4ccc(F)cc4)n[nH]c3c2cc1OC`: > 80 µM (inactive).
For `COc1ccccc1-c1cc(C(=O)N[C@@H](CC(C)C)C(=O)O)nn1-c1ccnc2cc(Cl)ccc12`, the EC50 was 0.966 µM.
Next, `COc1cc2c3nnc(-c4ccc(F)cc4)c-3cn(Cc3ccc(OC(F)(F)F)cc3)c2cc1OC`: 12.3 µM.
Next, `CCOc1ccc(-c2nnc3c4cc(OC)c(OC)cc4n(Cc4ccc(F)cc4)cc2-3)cc1`: 8.05 µM.
With `COc1cccc(OC)c1-c1cc(C(=O)O)nn1-c1ccnc2cc(Cl)ccc12` the figure was > 80 µM (inactive); with `COc1cc2c3nnc(-c4ccc(C)c(C)c4)c-3cn(Cc3ccc(F)cc3)c2cc1OC`, 16.2 µM; with `CC(C)C[C@H](NC(=O)c1cn(-c2ccncc2)c(-c2ccccc2)n1)C(=O)O`, > 80 µM (inactive).
As for `COc1ccc(-c2nnc3c4ccccc4n(CC4CC4)cc2-3)cc1`, the EC50 entry was “inactive”.
With `COc1ccc(-c2nnc3c4ccccc4n(Cc4ccc(C)cc4)cc2-3)cc1` the figure was > 80 µM (inactive); with `COc1cc2c3nnc(-c4ccc(Cl)cc4)c-3cn(Cc3ccc(F)cc3)c2cc1OC`, 2.95 µM; with `CCCc1nc(N2CCN(c3ccccc3OC)CC2)c2cc(OC)c(OC)cc2n1`, 16.6 µM.
Next, `COc1ccc(Cn2cc3c(-c4ccc(F)cc4)nnc-3c3cc(OC)c(OC)cc32)cc1`: 8.11 µM; `COc1ccc(-c2nnc3c4ccccc4n(Cc4ccc(F)cc4)cc2-3)cc1`: “inactive”; `COc1cc2nc(C3CCCC3)nc(N3CCN(c4ccccc4OC)CC3)c2cc1OC`: 5.79 µM.
As to `CCc1ccc(-c2nnc3c4cc(OC)c(OC)cc4n(Cc4ccccc4)cc2-3)cc1`, the EC50 result was “inactive”.
Regarding `COc1cc2nc(CC3CC3)nc(N3CCN(c4ccccc4OC)CC3)c2cc1OC`, the EC50 was 14.2 µM.
For the compound `COc1cc2nc(C3CC3)nc(N3CCN(S(=O)(=O)c4ccccc4)CC3)c2cc1OC`, the EC50 was > 80 µM (inactive).
On to `COc1ccc(-c2nnc3c4ccccc4n(CCc4ccccc4)cc2-3)cc1`, for which the EC50 result was “inactive”.
Next, `Cc1ccc(Cn2cc3c(-c4ccc(Cl)cc4)nnc-3c3cc4c(cc32)OCO4)cc1`: “inactive”.
With `COc1ccc2c3nnc(-c4ccc(C)cc4)c-3cn(Cc3ccccc3)c2c1` the figure was 15.8 µM; with `COc1cc2c3nnc(-c4ccc(F)cc4)c-3cn(Cc3ccccc3N(C)C)c2cc1OC`, 4.36 µM and 4.14 µM.
Next, `COc1cc2c3nnc(-c4ccc(F)cc4)c-3cn(Cc3cccc(N(C)C)c3)c2cc1OC`: > 80 µM (inactive); `COc1cccc(OC)c1-c1nc(C(=O)NC2(C(=O)O)C3CC4CC(C3)CC2C4)cn1-c1ccnc2cc(Cl)ccc12` (centres undefined): “inactive”; `COc1cc2nc(-c3ccccc3)nc(N3CCN(c4ccccc4F)CC3)c2cc1OC`: > 80 µM (inactive).
As for `COc1cc2nc(C3CC3)nc(N3CCN(C(=O)c4ccccc4)CC3)c2cc1OC`, the EC50 result is “inactive”.
Next, `CCOc1ccccc1N1CCN(c2nc(C3CC3)nc3cc(OC)c(OC)cc23)CC1`: 6.08 µM; `COc1cc2c3nnc(-c4ccc(F)cc4)c-3cn(CCc3ccccc3)c2cc1OC`: “inactive”; `CCOC(=O)c1cc(-c2c(OC)cccc2OC)n(-c2ccnc3cc(Cl)ccc23)n1`: > 80 µM (inactive).
As to `CC(C)C[C@H](NC(=O)c1cn(-c2ccnc3cc(Cl)ccc23)c(-c2c(Cl)cccc2Cl)n1)C(=O)O`, the EC50 was 5.17 µM.
In the case of `COc1ccc(-c2nc(C(=O)N[C@@H](CC(C)C)C(=O)O)cn2-c2ccnc3cc(Cl)ccc23)c(OC)c1`, the EC50 is > 80 µM (inactive).
With `COc1ccccc1N1CCN(c2nc(C3CCC3)nc3ccccc23)CC1` the entry was “inactive”; with `COc1cc2c3nnc(-c4ccc(F)cc4)c-3cn(Cc3ccc(N(C)C)cc3)c2cc1OC`, > 80 µM (inactive); with `COc1cc2nc(-c3ccccc3)nc(N3CCN(c4ccccc4)CC3)c2cc1OC`, > 80 µM (inactive).
With `CCc1ccc(-c2nnc3c4cc(OC)c(OC)cc4n(Cc4ccc(F)cc4)cc2-3)cc1` the figure was 9.22 µM; with `COc1cc2c3nnc(-c4ccc(F)cc4)c-3cn(Cc3ccccc3C)c2cc1OC`, 3.95 µM; with `COc1cc2nc(C(C)C)nc(N3CCN(c4ccccc4OC)CC3)c2cc1OC`, 7.65 µM.
In the case of `COc1cc2nc(C3CCC3)nc(N3CCN(c4ccccc4Cl)CC3)c2cc1OC`, the EC50 is 12.2 µM.
On to `Cc1cccc(C)c1-c1nc(C(=O)N[C@@H](CC(C)C)C(=O)O)cn1-c1ccnc2cc(Cl)ccc12`, for which the EC50 was 9.23 µM.
Next, `COc1cc2nc(C3CCC3)nc(N3CCN(c4ccccc4C)CC3)c2cc1OC`: 14.9 µM.
Next, `Cc1ccc(-c2nnc3c4cc5c(cc4n(Cc4ccccc4)cc2-3)OCO5)cc1`: “inactive”; `COc1cc2nc(C3CC3)nc(N3CCN(Cc4ccc(C)cc4)CC3)c2cc1OC`: “inactive”; `COc1ccc(N2CCN(c3nc(C4CCC4)nc4cc(OC)c(OC)cc34)CC2)c(OC)c1`: “inactive”.
Take `COc1cc2c3nnc(-c4ccc(Cl)cc4)c-3cn(Cc3ccc(C)cc3)c2cc1OC`: the EC50 was 18.1 µM.
For the compound `COc1cc2c3nnc(-c4ccccc4)c-3cn(Cc3ccc(F)cc3)c2cc1OC`, the EC50 was 16.6 µM.
For `CCn1cc2c(-c3ccc(F)cc3)nnc-2c2cc(OC)c(OC)cc21`, the EC50 was > 80 µM (inactive).
With `COc1cccc(OC)c1-c1nc(C(=O)N[C@@H](CC(C)C)C(=O)O)cn1-c1ccnc2ccccc12` the figure was 3.76 µM; with `CCOc1ccc(-c2nnc3c4cc(OC)c(OC)cc4n(Cc4ccccc4)cc2-3)cc1`, 8.92 µM; with `CC(C)C[C@H](NC(=O)c1cn(-c2ccnc3cc(Cl)ccc23)c(-c2ccccc2)n1)C(=O)O`, “inactive”.
With `COc1cc2nc(C3CCC3)nc(N3CCN(c4ccccn4)CC3)c2cc1OC` the entry was “inactive”; with `COc1cc2nc(C3CC3)nc(N3CCNCC3)c2cc1OC`, > 80 µM (inactive); with `COc1ccc(-c2nnc3c4cc(OC)c(OC)cc4n(Cc4ccccc4)cc2-3)cc1`, 17 µM.
With `Fc1ccc(Cn2cc3c(-c4ccc(Cl)cc4)nnc-3c3cc4c(cc32)OCO4)cc1` the figure was 9.12 µM; with `COc1ccccc1-c1nc(C(=O)N[C@@H](CC(C)C)C(=O)O)cn1-c1ccnc2cc(Cl)ccc12`, “inactive”; with `COc1ccccc1-c1cc(C(=O)N[C@@H](CC(C)C)C(=O)OC(C)(C)C)nn1-c1ccnc2cc(Cl)ccc12`, 5.01 µM.
For the compound `COc1cccc(N2CCN(c3nc(C4CCC4)nc4cc(OC)c(OC)cc34)CC2)c1`, the EC50 was 17.2 µM.
Next, `COc1cc2c3nnc(-c4ccc(C)c(C)c4)c-3cn(Cc3ccc(C)cc3)c2cc1OC`: 4.9 µM.
Next, `COc1ccc2c3nnc(-c4ccc(C)cc4)c-3cn(Cc3ccc(F)cc3)c2c1`: 11.2 µM; `COc1cc2nc(C3CCC3)nc(N3CCN(c4ccccc4[N+](=O)[O-])CC3)c2cc1OC`: “inactive”; `COc1cc2c3nnc(-c4ccc(F)cc4)c-3cn(Cc3ccc(C)cc3C)c2cc1OC`: 5.82 µM.
With `COc1cccc(OC)c1-c1cc(C(=O)N[C@@H](CC(C)C)C(=O)OC(C)(C)C)nn1-c1ccnc2cc(Cl)ccc12` the figure was 1.35 µM.
As to `COc1cc2c3nnc(-c4ccccc4)c-3cn(Cc3ccccc3)c2cc1OC`, the EC50 was 19.9 µM.
`CCn1cc2c(-c3ccc(OC)cc3)nnc-2c2ccccc21`: the EC50 was > 80 µM (inactive).
As for `COc1ccc(N2CCN(c3nc(C4CCC4)nc4cc(OC)c(OC)cc34)CC2)cc1`, the EC50 result was “inactive”.
For the compound `COc1cc2c3nnc(-c4ccc(F)cc4)c-3cn(Cc3ccc(Cl)cc3)c2cc1OC`, the EC50 is 7.54 µM.
On to `CCOc1ccc(-c2nnc3c4cc(OC)c(OC)cc4n(Cc4ccc(C)cc4)cc2-3)cc1`, for which the EC50 was 13 µM.
As to `COc1cc2nc(-c3ccccc3)nc(N3CCN(c4ccc(F)cc4)CC3)c2cc1OC`, the EC50 was > 80 µM (inactive).
Next, `COc1cc2nc(Cc3ccccc3)nc(N3CCN(c4ccccc4OC)CC3)c2cc1OC`: 13.8 µM; `Cc1ccc(Cn2cc3c(-c4ccc(F)cc4)nnc-3c3cc4c(cc32)OCO4)cc1`: 5.49 µM and 8.2 µM; `COc1cc2c3nnc(-c4ccc(Cl)cc4)c-3cn(Cc3ccccc3)c2cc1OC`: 4.15 µM.
For the compound `COc1cc2nc(C3CC3)nc(N3CCN(C(=O)c4ccccc4OC)CC3)c2cc1OC`, the EC50 result is “inactive”.
With `COc1ccc(-c2nnc3c4cc(OC)c(OC)cc4n(Cc4ccc(F)cc4)cc2-3)cc1` the figure was > 80 µM (inactive); with `COc1ccc(Cn2cc3c(-c4ccc(OC)cc4)nnc-3c3ccccc32)cc1`, > 80 µM (inactive).
As to `CCOc1cc2nc(-c3ccc(OC)c(OC)c3)nc(N3CCN(c4ccccc4)CC3)c2cc1OC`, the EC50 was > 80 µM (inactive).
As to `COc1cc2c3nnc(-c4ccc(F)cc4)c-3cn(Cc3ccc(C)cc3)c2cc1OC`, the EC50 was 6.9 µM and 6.79 µM.
With `COc1ccc2c(c1)c1nnc(-c3ccc(F)cc3)c-1cn2Cc1ccc(F)cc1` the figure was 13.9 µM.
With `COc1cc2c3nnc(-c4ccccc4)c-3cn(Cc3ccc(C)cc3)c2cc1OC` the figure was > 80 µM (inactive); with `Fc1ccc(-c2nnc3c4cc5c(cc4n(Cc4ccccc4)cc2-3)OCO5)cc1`, 10.9 µM.
On to `COc1ccccc1CN1CCN(c2nc(C3CC3)nc3cc(OC)c(OC)cc23)CC1`, for which the EC50 result was “inactive”.
With `COc1cc2c3nnc(-c4ccc(F)cc4)c-3cn(Cc3ccc(F)cc3)c2cc1OC` the figure was 11.1 µM.
With `COc1ccc2nc(C3CC3)nc(N3CCN(c4ccccc4OC)CC3)c2c1`, the EC50 is 4.1 µM.
Regarding `COc1cccc(OC)c1-c1nc(C(=O)N[C@@H](CC(C)C)C(=O)O)cn1-c1ccncc1`, the EC50 entry was “inactive”.
Consider `COc1cc2c3nnc(-c4ccc(F)cc4)c-3cn(Cc3ccccc3)c2cc1OC`, for which the EC50 is 7.24 µM and 7.42 µM.
